# Results reported in US20190374628A1, “MUTATED FRAGMENTS OF THE RAS PROTEIN” (Targovax ASA, priority 2015, published 2019).
# “And” between values parts separate entries of the source, which are not always exact repeats. Equal entries are not always repeated.
# Experiments:
# splenocytes = assay: Splenocyte proliferation assay (3H-thymidine) after subcutaneous vaccination of mice with TG02; type: cell-based, BALB/c mice; settings: ex vivo 10 μM TG02 per peptide or 1 μg/200 μL ConA, 5 days; for Counts per minute (CPM) of stimulated splenocytes: single replicates
# Procedure: In this Example, mice were repeatedly vaccinated subcutaneously with TG02, in order to analyse the immune response. Following the vaccination, splenocytes were harvested, and the proliferative response of the splenocytes was measured.
# The study was conducted with 3 groups, each compromising 10 female BALB/c mice. The start of the study was performed on two separate days on which 5 of the animals per group were treated. Therefore the groups were divided into part I and part II. The animals were treated subcutaneously at different time points (Table 30).
# In all groups the test item was administered at repeated time points (Table 33) by subcutaneous injection between the nape of the neck and the shoulder. The application volume for all groups was 0.1 mL (0.80 mg TG02).
# The spleen of all animals was removed, transferred to cell culture medium (RPMI 1640 medium supplemented with 10% FCS, 100 U/mL Penicillin, 100 μg/mL Streptomycin, 2 mM L-Glutamine, and 50 μM beta-mercaptoethanol) and stored on ice. All steps were performed sterile and cells were kept on ice.
# A single cell suspension from splenic cells was generated using a cell strainer. After centrifugation (350 g, 5 min, 5±3° C.), supernatant was removed and the cell pellet was resuspended in ACK buffer and incubated for 5 min at RT. 10 mL cell culture medium was added. The samples were left 5 min on bench top to let the cell debris sediment. The suspension above the cell debris was transferred into another tube and was centrifuged (350 g, 5 min, 5±3° C.). The supernatant was removed and the cell pellet was resuspended in 10 mL cell culture medium. After counting of cells, 0.2 Mio cells were seeded in a 96 well plate (180 μL per well; 1,1*10^6 cells/mL). 9 replicates were plated on each plate for each spleen.
# The following stimulations were performed: • 3 replicates: unstimulated (addition of 20 μL cell culture medium) • 3 replicates: stimulation with 10 μM TG02 (8 peptides, 10 μM end concentration per peptide, addition in 20 μL cell culture medium) • 3 replicates: stimulation with 1 μg/200 μL ConA (Concanavalin A) (addition of 1 μg ConA in 20 μL cell culture medium)
# Incubation at 37° C. and 5% CO2 for 24 h (1), 48 h (2) or 5 days (3).
# Proliferation Assay • (3) After 5 days, 1 μCi/well ^3H-Thymidine was added to the samples, which were then incubated for 18 h at 37° C. and 5% CO2. The plates were then frozen at […]
# Plates were thawed at RT. After washing off the harvester, the samples were transferred to a filter plate using the harvester followed by 5 washing steps using water. Filter plates were dried at RT overnight. A foil was stuck to the bottom of the filter plates and 20 μL scintillation fluid was added to the wells. After incubation of 1 h at RT, the samples were measured using a TopCount NXT and the stimulation index (SI) was calculated. SI=CPM of stimulated samples/CPM of control samples.
# T-cells [1] = assay: Bulk cultures for increasing number of TGX3 and peptide reactive T-cells: total T cell numbers; type: cell-based, human; settings: for Total T cell numbers in cultures: Day 14, after first stimulation, 10 μM of each peptide; for Total T cell numbers: Day 19, after second stimulation
# Procedure: b) First Stimulation—Bulk Cultures for Increasing Number of TGX3 and Peptide Reactive T-Cells • 1. Transfered 1 ml of the different PBMCs (4×10^6 cells/ml in DC medium) to each well in a 24-well plate.
# • 2. Added TGX3-mix/single peptide to each well for a final concentration of 10 μM of each peptide. • 3. Cultured the cells in a humidified incubator at 37° C./5% CO2 for 3 days • 4. Day 3: Added a final concentration of 20 iU/ml of recombinant human interleukin-2 (rIL-2, b#77) and final concentration of 5 ng/ml recombinant human IL-7 (b#25) to the cell cultures and continued incubation at 37° C./5% CO2. This depended on how fast the cells were growing and needed to be decided by a trained person with T-cell culture experience (according to checklist for training, Section for Cell Therapy). • 5. Days 4-12: Cells were checked regularly under the microscope and split when required (500 μl was withdrawn from each well and replaced with 500 μl fresh CellGro DC medium, supplemented with 20 iU/ml IL-2 and 5 ng/ml IL-7) and wells with slow growing cells were mixed together.
# c) Second Stimulation (Day 14) of Bulk Cultures • 1. Day 14: Harvested, washed and counted T-cells in the bulk cultures from 6.2;
# Bulk culture cells (ca 2×10^6 T cells/well) were re-stimulated once more with autologous irradiated (30 Gy) APCs (ca 2×10^6 APCs/well) added their respective peptides (as described in step b) above). • 2. Cultured the cells in a humidified incubator at 37° C./5% CO2 for 3 days. • 3. Day 3 after second stimulation (i.e. Day 17 of the procedure): A final concentration of 20 iU/ml of recombinant human interleukin-2 (rIL-2, b#77) and final concentration of 5 ng/ml recombinant human IL-7 (b#25) were added to the cell cultures and continued incubation at 37° C./5% CO2 (as described in step b) above). • 4. Day 18-26: Cells were checked regularly under the microscope and split when required (500 μl was withdrawn from each well and replaced with 500 μl fresh CellGro DC medium, supplemented with 20 iU/ml IL-2 and 5 ng/ml IL-7) and wells with slow growing cells were mixed together (see step b) above).
# d) Third Stimulation (Day 19) and Testing for Specificities in 3-Day T-Cell Proliferation Assay—Bulk Cultures • 1. Day 19: Harvested, washed and counted T-cells in the bulk cultures from 6.3;
# T-cells [2] = assay: 3-day T-cell proliferation assay after stimulation of buffy coat PBMCs with TGX3 or A146T peptide; type: cell-based, human; settings: buffy coat of healthy donor (buffy 5), FIG. 11
# Excerpt: In this Example, Buffy coats were collected from three normal donors (Buffy 5, Buffy 6, and Buffy 7) for testing of T cell responses to selected peptides reflecting exon 2, 3 and 4 mutations in RAS. The standard operating procedure (SOP) for monitoring of T cell responses in clinical studies with KRAS peptide vaccination (TG01) was used for testing of peptide cocktail TGX3 and individual peptides.
# Peptide cocktail TGX3 was a mixture of equimolar amounts of A146T+G13C+G13D+Q61R.
# The procedure was performed at room temperature. All handling of cells in the open was done in a vertical laminar flow hood. • 1. 3 Buffy coats were ordered from Blodbanken, Ulleval, OUS, Norway • 2. PBMCs were isolated according to methods C001-003 (platelet-low). • 3. The number of viable cells was counted using KOVA Galsstic slides and the cell concentration adjusted to 4×10^6 cells/ml in complete CellGro DC medium (see recipe). Total cell numbers: Buffy 5-585×10^6, Buffy 6-360×10^6, and Buffy 7-405×10^6 cells. […]
# c) Second Stimulation (Day 14) of Bulk Cultures • 1. Day 14: Harvested, washed and counted T-cells in the bulk cultures from 6.2; […]
# d) Third Stimulation (Day 19) and Testing for Specificities in 3-Day T-Cell Proliferation Assay—Bulk Cultures • 1. Day 19: Harvested, washed and counted T-cells in the bulk cultures from 6.3; […]
substance,measurement,setting,value
Concanavalin A [ConA],Mean counts per minute (CPM) of stimulated splenocytes,splenocytes; Mean Mouse #4 (vaccinated with TG02),"15,210 CPM"
same,Mean counts per minute (CPM) of stimulated splenocytes,splenocytes; Mean Mouse #7 (vaccinated with TG02),6158 CPM
same,Mean counts per minute (CPM) of stimulated splenocytes,splenocytes; Mean Mouse #24 (vaccinated with TG02+Viscogel),8823 CPM
same,Mean counts per minute (CPM) of stimulated splenocytes,splenocytes; Mean Mouse #29 (vaccinated with TG02+Viscogel),"10,935 CPM"
same,Counts per minute (CPM) of stimulated splenocytes,splenocytes; Mouse #4 (vaccinated with TG02),"15,113 CPM and 12,612 CPM and 17,906 CPM"
same,Counts per minute (CPM) of stimulated splenocytes,splenocytes; Mouse #7 (vaccinated with TG02),5305 CPM and 6252 CPM and 6916 CPM
same,Counts per minute (CPM) of stimulated splenocytes,splenocytes; Mouse #24 (vaccinated with TG02+Viscogel),"7834 CPM and 8578 CPM and 10,057 CPM"
same,Counts per minute (CPM) of stimulated splenocytes,splenocytes; Mouse #29 (vaccinated with TG02+Viscogel),"9480 CPM and 13,292 CPM and 10,033 CPM"
same,Counts per minute (CPM) of stimulated splenocytes,splenocytes; Mouse #30 (vaccinated with TG02+Viscogel),"32,205 CPM and 35,668 CPM and 42,149 CPM"
same,Mean counts per minute (CPM) of stimulated splenocytes,splenocytes; Mouse #30 mean line (vaccinated with TG02+Viscogel),"36,687 CPM"
"GIPFIETSTKTRQRVED (listed as Homo sapiens) [A146T, KRAS peptide having a A146T mutation]",Total T cell numbers in cultures,T-cells [1]; Buffy 5,4 × 10^6
same,Total T cell numbers,T-cells [1]; Buffy 5,10.8 × 10^6
same,Total T cell numbers in cultures,T-cells [1]; Buffy 6,4 × 10^6
same,Total T cell numbers,T-cells [1]; Buffy 6,12.6 × 10^6
same,Total T cell numbers in cultures,T-cells [1]; Buffy 7,6.8 × 10^6
same,Total T cell numbers,T-cells [1]; Buffy 7,14.4 × 10^6
same,T-cell proliferation after stimulation with A146T peptide (result in words),T-cells [2],immunogenic and is efficient in inducing T-cell proliferation
same,T-cell proliferation after stimulation with A146T peptide (result in words),T-cells [2]; listed as A146T peptide,stimulates induction of T-cells
